{
  "source": "patent US11787780B2",
  "about": "(CORCEPT THERAPEUTICS INCORPORATED, priority 2020, dated 2023)",
  "key": {"[1]": {"target": "glucocorticoid receptor (GR) recombinant ligand binding domain (LBD) (Homo sapiens (Human), UniProt P04150)", "sequence (P04150 524-758)": "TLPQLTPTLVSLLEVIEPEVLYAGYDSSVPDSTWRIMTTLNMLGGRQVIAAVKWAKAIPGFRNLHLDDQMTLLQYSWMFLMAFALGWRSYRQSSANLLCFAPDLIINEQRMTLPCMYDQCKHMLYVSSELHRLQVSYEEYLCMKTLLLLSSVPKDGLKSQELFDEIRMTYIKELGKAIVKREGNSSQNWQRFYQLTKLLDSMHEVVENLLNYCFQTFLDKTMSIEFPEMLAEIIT", "experiment": "GR binding fluorescence polarisation (FP) assay", "conditions": "displacement of fluorescently tagged ligand", "experimental": "Binding of test compounds to the glucocorticoid receptor (GR) is determined using a fluorescence polarisation (FP) assay utilising a recombinant ligand binding domain (LBD) of GR. The test compounds are assessed by their ability to displace a fluorescently tagged ligand and detection of the resulting decrease in fluorescence polarisation."}, "[2]": {"system": "induction of TAT by dexamethasone in HepG2 cells", "experiment": "Hep G2 TAT assay (inhibition of dexamethasone-induced TAT)", "format": "cell-based, human", "conditions": "challenge of 100 nM dexamethasone, IC50 converted to Ki by Cheng and Prusoff equation"}},
  "data": [
    {"smiles": "CC(=O)N1CCC(S(=O)(=O)N2CCC(Cc3ccccc3)(c3cc4cnn(-c5ccc(F)cc5)c4cc3C)C2)CC1", "note": "(centres unmarked) [Example 325, 1-(4-((3-benzyl-3-(1-(4-fluorophenyl)-6-methyl-1H-indazol-5-yl)pyrrolidin-1-yl)sulfonyl)piperidin-1-yl)ethan-1-one]", "values": [
      {"measurement": "IC50", "setting": "[1]", "result": 28, "unit": "nM"},
      {"measurement": "Ki", "setting": "[2]", "result": 110, "unit": "nM"}
    ]},
    {"smiles": "[2H]C([2H])([2H])n1cc(-n2ncc3cc(C4(Cc5ccccc5)CCN(S(=O)(=O)c5cnn(C)n5)C4)c(C)cc32)ccc1=O", "note": "(centres unmarked) [Example 261, 5-(5-(3-benzyl-1-((2-methyl-2H-1,2,3-triazol-4-yl)sulfonyl)pyrrolidin-3-yl)-6-methyl-1H-indazol-1-yl)-1-(methyl-d3)pyridin-2(1H)-one]", "values": [
      {"measurement": "IC50", "setting": "[1]", "result": 2.9, "unit": "nM"},
      {"measurement": "Ki", "setting": "[2]", "result": 44, "unit": "nM"}
    ]},
    {"smiles": "Cc1cc2c(cnn2-c2ccc(=O)n(C)c2)cc1C1(Cc2ccccc2)CCN(S(=O)(=O)c2ccc(Cl)cc2C#N)C1", "note": "(centres unmarked) [Example 313, 2-((3-benzyl-3-(6-methyl-1-(1-methyl-6-oxo-1,6-dihydropyridin-3-yl)-1H-indazol-5-yl)pyrrolidin-1-yl)sulfonyl)-5-chlorobenzonitrile]", "values": [
      {"measurement": "IC50", "setting": "[1]", "result": 8.3, "unit": "nM"},
      {"measurement": "Ki", "setting": "[2]", "result": 50, "unit": "nM"}
    ]},
    {"smiles": "Cc1cc2c(cnn2-c2ccc(F)cc2)cc1N1CCC(C)(NS(=O)(=O)c2cnn(CC3CC3)n2)CC1", "note": "[Example 132]", "values": [
      {"measurement": "IC50", "setting": "[1]", "result": 13, "unit": "nM"},
      {"measurement": "Ki", "setting": "[2]", "result": 34, "unit": "nM"}
    ]},
    {"smiles": "Cc1cc2c(cnn2-c2ccc(=O)n(C)c2)cc1C1(Cc2ccc(F)cc2)CCN(S(=O)(=O)c2cnn(C)c2)C1", "note": "(centres unmarked) [Example 323, 5-(5-(3-(4-fluorobenzyl)-1-((1-methyl-1H-pyrazol-4-yl)sulfonyl)pyrrolidin-3-yl)-6-methyl-1H-indazol-1-yl)-1-methylpyridin-2(1H)-one]", "values": [
      {"measurement": "IC50", "setting": "[1]", "result": 12, "unit": "nM"},
      {"measurement": "Ki", "setting": "[2]", "result": 97, "unit": "nM"}
    ]},
    {"smiles": "CCCn1cc(S(=O)(=O)N2CCN(c3cc4cnn(-c5ccc(F)cc5)c4cc3C)C(c3ccccc3)C2)cn1", "note": "(centres unmarked) [Example 86]", "values": [
      {"measurement": "IC50", "setting": "[1]", "result": 162, "unit": "nM"},
      {"measurement": "Ki", "setting": "[2]", "result": 864, "unit": "nM"}
    ]},
    {"smiles": "Cc1cc2c(cnn2-c2ccc(F)cc2)cc1C1(Cc2ccccc2)CCN(S(C)(=O)=O)C1", "note": "(centres unmarked) [Example 16, 5-(3-benzyl-1-(methylsulfonyl)pyrrolidin-3-yl)-1-(4-fluorophenyl)-6-methyl-1H-indazole]", "values": [
      {"measurement": "IC50", "setting": "[1]", "result": 8, "unit": "nM"},
      {"measurement": "Ki", "setting": "[2]", "result": 32, "unit": "nM"}
    ]},
    {"smiles": "Cc1cc2c(cnn2-c2ccc(F)cc2)cc1C1CCN(C(=O)NC(C)C)CC1", "note": "[Example 32, 4-(1-(4-fluorophenyl)-6-methyl-1H-indazol-5-yl)-N-isopropylpiperidine-1-carboxamide]", "values": [
      {"measurement": "IC50", "setting": "[1]", "result": 70, "unit": "nM"},
      {"measurement": "Ki", "setting": "[2]", "result": 400, "unit": "nM"}
    ]},
    {"smiles": "CCCn1cc(S(=O)(=O)N2CCC(COC)(c3cc4cnn(-c5ccc(F)cc5)c4cc3C)CC2)cn1", "note": "[Example 24, 1-(4-fluorophenyl)-5-(4-(methoxymethyl)-1-((1-propyl-1H-pyrazol-4-yl)sulfonyl)piperidin-4-yl)-6-methyl-1H-indazole]", "values": [
      {"measurement": "IC50", "setting": "[1]", "result": 84, "unit": "nM"},
      {"measurement": "Ki", "setting": "[2]", "result": 1510, "unit": "nM"}
    ]},
    {"smiles": "Cc1cc2c(cnn2-c2ccc(=O)n(C)c2)cc1C1(Cc2ccccc2)CCN(S(=O)(=O)c2cncc(Cl)c2)C1", "note": "(centres unmarked) [Example 312, 5-(5-(3-benzyl-1-((5-chloropyridin-3-yl)sulfonyl)pyrrolidin-3-yl)-6-methyl-1H-indazol-1-yl)-1-methylpyridin-2(1H)-one]", "values": [
      {"measurement": "IC50", "setting": "[1]", "result": 12, "unit": "nM"},
      {"measurement": "Ki", "setting": "[2]", "result": 41, "unit": "nM"}
    ]},
    {"smiles": "COc1cc2c(cnn2-c2ccc(F)cc2)cc1C1(Cc2ccccc2)CCN(S(=O)(=O)c2cnn(C)n2)C1", "note": "(centres unmarked) [Example 218, 5-(3-benzyl-1-((2-methyl-2H-1,2,3-triazol-4-yl)sulfonyl)pyrrolidin-3-yl)-1-(4-fluorophenyl)-6-methoxy-1H-indazole]", "values": [
      {"measurement": "IC50", "setting": "[1]", "result": 14, "unit": "nM"},
      {"measurement": "Ki", "setting": "[2]", "result": 10, "unit": "nM"}
    ]},
    {"smiles": "Cc1cc2c(cnn2-c2cnn(C(F)F)c2)cc1C1(Cc2ccccc2)CCN(S(=O)(=O)c2cnn(C)n2)C1", "note": "(centres unmarked) [Example 255, 5-(3-benzyl-1-((2-methyl-2H-1,2,3-triazol-4-yl)sulfonyl)pyrrolidin-3-yl)-1-(1-(difluoromethyl)-1H-pyrazol-4-yl)-6-methyl-1H-indazole]", "values": [
      {"measurement": "IC50", "setting": "[1]", "result": 27, "unit": "nM"},
      {"measurement": "Ki", "setting": "[2]", "result": 44, "unit": "nM"}
    ]},
    {"smiles": "COc1ccc(S(=O)(=O)N2CCC(Cc3ccccc3)(c3cc4cnn(-c5ccc(=O)n(C)c5)c4cc3C)C2)cc1", "note": "(centres unmarked) [Example 304, 5-(5-(3-benzyl-1-((4-methoxyphenyl)sulfonyl)pyrrolidin-3-yl)-6-methyl-1H-indazol-1-yl)-1-methylpyridin-2(1H)-one]", "values": [
      {"measurement": "IC50", "setting": "[1]", "result": 7.5, "unit": "nM"},
      {"measurement": "Ki", "setting": "[2]", "result": 48, "unit": "nM"}
    ]},
    {"smiles": "Cc1cc2c(cnn2-c2ccc(=O)n(C)c2)cc1C1(Cc2ccccc2)CCN(S(=O)(=O)c2ccc(Cl)cc2)C1", "note": "(centres unmarked) [Example 305, 5-(5-(3-benzyl-1-((4-chlorophenyl)sulfonyl)pyrrolidin-3-yl)-6-methyl-1H-indazol-1-yl)-1-methylpyridin-2(1H)-one]", "values": [
      {"measurement": "IC50", "setting": "[1]", "result": 3, "unit": "nM"},
      {"measurement": "Ki", "setting": "[2]", "result": 32, "unit": "nM"}
    ]},
    {"smiles": "CCCn1cc(S(=O)(=O)N2CCC(Cc3ccccc3)(c3cc4cnn(-c5ccc(F)cc5)c4cc3C(C)C)C2)cn1", "note": "(centres unmarked) [Example 165]", "values": [
      {"measurement": "IC50", "setting": "[1]", "result": 72, "unit": "nM"},
      {"measurement": "Ki", "setting": "[2]", "result": 37, "unit": "nM"}
    ]},
    {"smiles": "Cc1ccc(S(=O)(=O)N2CCC(Cc3ccccc3)(c3cc4cnn(-c5ccc(=O)n(C)c5)c4cc3C)C2)cc1", "note": "(centres unmarked) [Example 307, 5-(5-(3-benzyl-1-tosylpyrrolidin-3-yl)-6-methyl-1H-indazol-1-yl)-1-methylpyridin-2(1H)-one]", "values": [
      {"measurement": "IC50", "setting": "[1]", "result": 8.8, "unit": "nM"},
      {"measurement": "Ki", "setting": "[2]", "result": 89, "unit": "nM"}
    ]},
    {"smiles": "Cc1cc2c(cnn2-c2ccc(F)cc2)cc1C1(Cc2ccccc2)CCN(S(=O)(=O)c2cncs2)C1", "note": "(centres unmarked) [Example 154]", "values": [
      {"measurement": "IC50", "setting": "[1]", "result": 269, "unit": "nM"},
      {"measurement": "Ki", "setting": "[2]", "result": 14, "unit": "nM"}
    ]},
    {"smiles": "CCCn1cc(S(=O)(=O)N2CCN(c3ccc4c(cnn4-c4ccc(F)cc4)c3)CC23CC3)cn1", "note": "[Example 50]", "values": [
      {"measurement": "IC50", "setting": "[1]", "result": 27, "unit": "nM"},
      {"measurement": "Ki", "setting": "[2]", "result": 480, "unit": "nM"}
    ]},
    {"smiles": "Cc1cc2c(cnn2-c2ccc(F)cc2)cc1N1CCC[C@H](N(C)S(C)(=O)=O)C1", "note": "[Example 123]", "values": [
      {"measurement": "IC50", "setting": "[1]", "result": 73, "unit": "nM"},
      {"measurement": "Ki", "setting": "[2]", "result": 284, "unit": "nM"}
    ]},
    {"smiles": "Cc1cc2c(cnn2-c2ccc(=O)n(C)c2)cc1C1(Cc2ccccc2)CCN(S(=O)(=O)c2cccc(F)c2F)C1", "note": "(centres unmarked) [Example 317, 5-(5-(3-benzyl-1-((2,3-difluorophenyl)sulfonyl)pyrrolidin-3-yl)-6-methyl-1H-indazol-1-yl)-1-methylpyridin-2(1H)-one]", "values": [
      {"measurement": "IC50", "setting": "[1]", "result": 8.9, "unit": "nM"},
      {"measurement": "Ki", "setting": "[2]", "result": 23, "unit": "nM"}
    ]},
    {"smiles": "CCCn1cc(S(=O)(=O)N2CC[C@](Cc3ccccc3)(c3cc4cnn(-c5ccc(F)cc5)c4cc3C)C2)cn1", "note": "[Example 18, (R)-5-(3-benzyl-1-((1-propyl-1H-pyrazol-4-yl)sulfonyl)pyrrolidin-3-yl)-1-(4-fluorophenyl)-6-methyl-1H-indazole]", "values": [
      {"measurement": "IC50", "setting": "[1]", "result": 24, "unit": "nM"},
      {"measurement": "Ki", "setting": "[2]", "result": 9, "unit": "nM"}
    ]},
    {"smiles": "COc1cc2c(cnn2-c2ccc(F)cc2)cc1C1(Cc2ccccc2)CCN(C(=O)c2nccs2)C1", "note": "(centres unmarked) [Example 233, (3-benzyl-3-(1-(4-fluorophenyl)-6-methoxy-1H-indazol-5-yl)pyrrolidin-1-yl)(thiazol-2-yl)methanone]", "values": [
      {"measurement": "IC50", "setting": "[1]", "result": 70, "unit": "nM"},
      {"measurement": "Ki", "setting": "[2]", "result": 52, "unit": "nM"}
    ]},
    {"smiles": "[2H]C([2H])([2H])n1cc(-n2ncc3cc(C4(Cc5ccccc5)CCN(S(=O)(=O)c5cnn(C)n5)C4)c(C)cc32)cn1", "note": "(centres unmarked) [Example 250, 5-(3-benzyl-1-((2-methyl-2H-1,2,3-triazol-4-yl)sulfonyl)pyrrolidin-3-yl)-6-methyl-1-(1-(methyl-d3)-1H-pyrazol-4-yl)-1H-indazole]", "values": [
      {"measurement": "IC50", "setting": "[1]", "result": 4.1, "unit": "nM"},
      {"measurement": "Ki", "setting": "[2]", "result": 26, "unit": "nM"}
    ]},
    {"smiles": "Cc1cc2c(cnn2-c2ccc(F)cc2)cc1C1(Cc2ccccc2)CCN(C(=O)c2cncs2)C1", "note": "(centres unmarked) [Example 232, (3-benzyl-3-(1-(4-fluorophenyl)-6-methyl-1H-indazol-5-yl)pyrrolidin-1-yl)(thiazol-5-yl)methanone]", "values": [
      {"measurement": "IC50", "setting": "[1]", "result": 10, "unit": "nM"},
      {"measurement": "Ki", "setting": "[2]", "result": 37, "unit": "nM"}
    ]},
    {"smiles": "Cc1cc2c(cnn2-c2ccc(F)cc2)cc1N1CCN(C(=O)c2cnn(C)c2)C2(CC2)C1", "note": "[Example 100]", "values": [
      {"measurement": "IC50", "setting": "[1]", "result": 233, "unit": "nM"},
      {"measurement": "Ki", "setting": "[2]", "result": 1200, "unit": "nM"}
    ]}
  ]
}
